Assay results taken from patent US6740634B1, “Sustained release compositions, process for producing the same and utilization thereof” (Takeda Chemical Industries, Ltd., priority 1998, dated 2004).
Where two headings read alike, the source gives them in different places.

Type: physicochemical
Protocol: To this salt, 0.5 ml of water was added, followed by stirring at room temperature for 4 hours, after which the liquid was filtered through a 0.2 μm filter and quantified by HPLC. The peptide B and 3-hydroxy-2-naphthoic acid concentrations were 2.37 g/l and 0.751 g/l, respectively.

water solubility relative to the water solubility of the acetate of peptide B	solubility (3-hydroxy-2-naphthoic acid concentration in saturated aqueous solution (water solubility of the salt)) [mg/mL]	solubility (peptide B concentration in saturated aqueous solution (water solubility of the salt)) [mg/mL]	solubility (water solubility) [mg/mL]	Compound
not more than 1/100	0.751	2.37	–	CCNC(=O)[C@@H]1CCCN1C(=O)[C@H](CCCNC(=N)N)NC(=O)[C@H](CC(C)C)NC(=O)[C@@H](CC(C)C)NC(=O)[C@H](Cc1ccc(O)cc1)NC(=O)[C@H](CO)NC(=O)[C@H](Cc1c[nH]c2ccccc12)NC(=O)[C@H](Cc1c[nH]cn1)NC(=O)[C@@H]1CCC(=O)N1
–	–	–	≥ 1000	CCNC(=O)[C@@H]1CCCN1C(=O)[C@H](CCCNC(=N)N)NC(=O)[C@H](CC(C)C)NC(=O)[C@@H](CC(C)C)NC(=O)[C@H](Cc1ccc(O)cc1)NC(=O)[C@H](CO)NC(=O)[C@H](Cc1c[nH]c2ccccc12)NC(=O)[C@H](Cc1c[nH]cn1)NC(=O)[C@@H]1CCC(=O)N1 [acetate of peptide B, reference compound]
